Data from US9695155B2, “Herbicidal substituted pyrimidinyloxy benzene compounds” (E. I. DU PONT DE NEMOURS AND COMPANY, priority 2013, dated 2017).

What was measured:
[1] = test system: large (Lg) crabgrass; test: Test C postemergence; type: in vivo, Digitaria sanguinalis; settings: Digitaria sanguinalis, post-emergence, Postemergence, scale 0 to 100 (0 no effect, 100 complete control), read-out: Plant response rating, Crabgrass, Large
Outline: (§1)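 Seeds were sown in loam–sand blend and sprayed preemergence, while plants at 1- to 4-leaf stage (2–18 cm) in peat-based medium received postemergence sprays; test chemicals were formulated in a non-phytotoxic solvent with surfactant. After 13–15 days in a greenhouse, injury was rated visually against controls, 0 (no effect) to 100 (complete control).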

[2] = test system: pigweed; test: Test C postemergence; type: in vivo, Amaranthus retroflexus; settings: Amaranthus retroflexus, post-emergence
Outline: as §1

[3] = test system: velvetleaf; test: Test C preemergence; type: in vivo, Abutilon theophrasti; settings: Abutilon theophrasti, pre-emergence
Outline: as §1

[4] = test system: galium; test: Test C preemergence; type: in vivo, Galium aparine; settings: Galium, pre-emergence
Outline: as §1

[5] = test system: soybean; test: Test C postemergence; type: in vivo, Glycine max; settings: Glycine max, post-emergence
Outline: as §1

[6] = test system: morningglory; test: Test C preemergence; type: in vivo, Ipomoea coccinea; settings: Ipomoea, pre-emergence
Outline: as §1

[7] = test system: lambsquarters; test: Test C postemergence; type: in vivo, Chenopodium album; settings: Chenopodium album, post-emergence
Outline: as §1

[8] = test system: giant foxtail; test: Test A postemergence; type: in vivo, Setaria faberii; settings: Setaria faberi, post-emergence, 240 h
Outline: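 Greenhouse pot test, loam/sand soil. Formulation: non-phytotoxic solvent mix plus surfactant. Pre: directed spray onto soil after sowing. Post: plants at 1–2 leaf, 2–10 cm. Rated visually vs untreated controls at ~10 d, 0 (no effect) to 100 (complete control).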

[9] = test system: corn; test: Test C preemergence; type: in vivo, Zea mays; settings: Zea mays, pre-emergence
Outline: as §1

N#Cc1cccc(Oc2ncc(Cl)cn2)c1-n1cc(C(F)(F)F)cn1 [Compound 58, 3-[(5-chloro-2-pyrimidinyl)oxy]-2-[4-(trifluoromethyl)-1H-pyrazol-1-yl]benzonitrile]
90%: pest or weed control at 31 g/ha ([2]; Postemergence, 31 g ai/ha, scale 0 to 100 (0 no effect, 100 complete control), 13 to 15 days, read-out: Plant response rating, Pigweed) | pest or weed control at 62 g/ha ([7]; Postemergence, 62 g ai/ha, scale 0 to 100 (0 no effect, 100 complete control), read-out: Plant response rating, Lambsquarters) | plant injury at 62 g/ha ([9]; 62 g ai/ha, preemergence, scale 0 (no effect) to 100 (complete control), read-out: Corn plant response rating)
20%: pest or weed control at 62 g/ha ([1]; 62 g ai/ha)
5%: pest or weed control at 31 g/ha ([1]; 31 g ai/ha, 13 to 15 days)
95%: pest or weed control at 62 g/ha ([2]; Postemergence, 62 g ai/ha, scale 0 to 100 (0 no effect, 100 complete control), read-out: Plant response rating, Pigweed) | Soybean plant response rating (crop injury, 0-100 scale) at 31 g/ha ([5]; Postemergence, 31 g ai/ha, scale 0 to 100 (0 no effect, 100 complete control), 13 to 15 days) | Soybean plant response rating (crop injury, 0-100 scale) at 62 g/ha ([5]; Postemergence, 62 g ai/ha, scale 0 to 100 (0 no effect, 100 complete control))
75%: pest or weed control at 31 g/ha ([7]; Postemergence, 31 g ai/ha, scale 0 to 100 (0 no effect, 100 complete control), 13 to 15 days, read-out: Plant response rating, Lambsquarters)
100%: pest or weed control at 250 g/ha ([2]; 250 g ai/ha, postemergence, read-out: Plant response rating (0 to 100), Pigweed) | pest or weed control at 62 g/ha ([3]; 62 g ai/ha, preemergence, scale 0 (no effect) to 100 (complete control), read-out: Velvetleaf plant response rating) | pest or weed control at 125 g/ha ([3]; 125 g ai/ha, preemergence, scale 0 (no effect) to 100 (complete control), read-out: Velvetleaf plant response rating) | pest or weed control at 250 g/ha ([3]; 250 g ai/ha, preemergence, scale 0 (no effect) to 100 (complete control), read-out: Velvetleaf plant response rating) | pest or weed control at 31 g/ha ([3]; Preemergence, 31 g ai/ha, scale 0 to 100, 0 no effect, 100 complete control, read-out: Plant response rating, Velvetleaf) | pest or weed control at 62 g/ha ([4]; 62 g ai/ha, preemergence, scale 0 (no effect) to 100 (complete control), read-out: Galium plant response rating) | pest or weed control at 125 g/ha ([4]; 125 g ai/ha, preemergence, scale 0 (no effect) to 100 (complete control), read-out: Galium plant response rating) | pest or weed control at 250 g/ha ([4]; 250 g ai/ha, preemergence, scale 0 (no effect) to 100 (complete control), read-out: Galium plant response rating) | pest or weed control at 31 g/ha ([4]; Preemergence, 31 g ai/ha, scale 0 to 100, 0 no effect, 100 complete control, read-out: Plant response rating, Galium) | pest or weed control at 62 g/ha ([6]; 62 g ai/ha, preemergence, scale 0 (no effect) to 100 (complete control), read-out: Morningglory plant response rating) | pest or weed control at 125 g/ha ([6]; 125 g ai/ha, preemergence, scale 0 (no effect) to 100 (complete control), read-out: Morningglory plant response rating) | pest or weed control at 250 g/ha ([6]; 250 g ai/ha, preemergence, scale 0 (no effect) to 100 (complete control), read-out: Morningglory plant response rating) | pest or weed control at 31 g/ha ([6]; Preemergence, 31 g ai/ha, scale 0 to 100, 0 no effect, 100 complete control, read-out: Plant response rating, Morningglory) | pest or weed control at 125 g/ha ([8]; 125 g ai/ha, 0 to 100 scale where 0 is no effect and 100 is complete control, read-out: Plant response rating, Foxtail, Giant) | pest or weed control at 500 g/ha ([8]; 500 g ai/ha, 0 to 100 scale, 0 no effect, 100 complete control, read-out: Plant response rating Foxtail, Giant)
60%: Corn plant response rating (crop injury, 0 = no effect, 100 = complete kill) at 31 g/ha ([9]; Preemergence, 31 g ai/ha, scale 0 to 100, 0 no effect, 100 complete control)
98%: pest or weed control at 125 g/ha ([2]; 125 g ai/ha, postemergence, read-out: Plant response rating (0 to 100), Pigweed) | Soybean plant response rating (crop injury, 0-100 scale) at 125 g/ha ([5]; 125 g ai/ha, postemergence, read-out: Plant response rating (0 to 100), Soybean) | Soybean plant response rating (crop injury, 0-100 scale) at 250 g/ha ([5]; 250 g ai/ha, postemergence) | pest or weed control at 125 g/ha ([7]; 125 g ai/ha, postemergence, read-out: Plant response rating (0 to 100), Lambsquarters) | pest or weed control at 250 g/ha ([7]; 250 g ai/ha, postemergence, read-out: Plant response rating (0 to 100), Lambsquarters) | plant injury at 125 g/ha ([9]; 125 g ai/ha, preemergence, scale 0 (no effect) to 100 (complete control), read-out: Corn plant response rating) | plant injury at 250 g/ha ([9]; 250 g ai/ha, preemergence, scale 0 (no effect) to 100 (complete control), read-out: Corn plant response rating)
